Literature values in US10159714B2, “Compositions, devices and methods of use thereof for the treatment of cancers” (Intarcia Therapeutics, Inc., priority 2011, dated 2018).
Blank lines part the entries; values can stand above or below the compound they belong to. Where no end group is shown, it is not given here.

Assays:
[1] = system: fasting hyperglycemia; conditions: type 2 diabetic patients
[2] = system: gonadotropin secretion / testosterone
[3] = system: prostatic tumors in Noble and Dunning male rats and DMBA-induced mammary tumors in female rats; conditions: hormone-dependent tumors in rats

Compound: GLP-1(7-37) (HAEGTFTSDVSSYLEGQAAKEFIAWLVKGRG; Glucagon-like peptide 1(7-37); UniProt P01275 98-128, looked up) [form of the GLP-1 peptide]
effect on fasting hyperglycemia [1]: normalize fasting hyperglycemia

oral activity ([2]; in vivo, po): not active when given orally
Compound: CCNC(=O)[C@@H]1CCCN1C(=O)[C@H](CCCNC(=N)N)NC(=O)[C@H](CC(C)C)NC(=O)[C@@H](CC(C)C)NC(=O)[C@H](Cc1ccc(O)cc1)NC(=O)[C@H](CO)NC(=O)[C@H](Cc1c[nH]c2ccccc12)NC(=O)[C@H](Cc1c[nH]cn1)NC(=O)[C@@H]1CCC(=O)N1 [leuprolide acetate]
time to decrease of LH, FSH and testosterone after initiation of treatment ([2]; continuous administration): two to six | testosterone level ([2]; males, continuous administration): reduced to castrate levels | tumor growth [3]: inhibition of the growth

Compound: glucagon-like peptide-1 (7-36) amide (HAEGTFTSDVSSYLEGQAAKEFIAWLVKGR-NH2; listed as Homo sapiens) [GLP-1(7-36)amide]
effect on fasting hyperglycemia [1]: normalize fasting hyperglycemia
